Three compounds from patent publication US12378208B2, “N-substituted oseltamivir derivatives with antimicrobial activity” (THE HONG KONG POLYTECHNIC UNIVERSITY, priority 2019, dated 2025) can be followed below.

Experiment [1] deals with oseltamivir-resistant strain 11v17178. Briefly: Plaque assay in MDCK cells. The experiment is classed as cell-based, influenza A virus (H1N1 pandemic).
The subject of experiment [2] is oseltamivir-resistant strain 09v71923. Briefly: Plaque assay in MDCK cells. The experiment is classed as cell-based, influenza A virus (H1N1 pandemic).
[3] abbreviates: day 3, vs DMSO vehicle, two concentrations.

`CCC(CC)O[C@@H]1C=C(C(=O)O)C[C@H](NCc2noc(-c3ccco3)n2)[C@H]1NC(C)=O` [Compound S7, (3R,4R,5S)-4-acetamido-5-(((5-(furan-2-yl)-1,2,4-oxadiazol-3-yl)methyl)amino)-3-(pentan-3-yloxy)cyclohex-1-ene-1-carboxylic acid]: the plaque size entry in experiment [1] (setting [3]) and in experiment [2] (setting [3]) was “No inhibition effect” each time.
`CCC(CC)O[C@@H]1C=C(C(=O)O)C[C@H](NCc2ccc(-c3c(C)noc3C)o2)[C@H]1NC(C)=O` [Compound S22, (3R,4R,5S)-4-acetamido-5-(((5-(3,5-dimethylisoxazol-4-yl)furan-2-yl)methyl)amino)-3-(pentan-3-yloxy)cyclohex-1-ene-1-carboxylic acid]: the plaque size result in experiment [1] (setting [3]) and in experiment [2] (setting [3]) was “No inhibition effect” in each case.
For the compound `CCOC(=O)C1=C[C@@H](OC(CC)CC)[C@H](NC(C)=O)[C@@H](N)C1` [oseltamivir], the plaque size result was “significant reduction” in experiment [1] (0.1 nM oseltamivir, day 3); “larger plaque size” in experiment [2] (0.2 nM oseltamivir, day 3); “could not reduce the plaque size” in experiment [2] (setting [3]).
